# Measurements published in patent publication US10087165B2, “Fluoroquinolones and use thereof to treat bacterial infections” (UNIVERSITÉ PIERRE ET MARIE CURIE—PARIS 6 (UPMC), priority 2014, dated 2018).
# Where two headings read alike, the source gives them in different places.
# How the values were obtained:
# [1] = target: T1, M. tuberculosis DNA gyrase (Mycobacterium tuberculosis, UniProt P9WG45+P9WG47); assay: biochemical
# M. tuberculosis H37Rv [2] = assay: microbe, parasite or virus in culture; type: cell-based; parameters: MIC against wild-type M. tuberculosis strain (below moxifloxacin MIC): unit not given beside the values; settings: for MIC: Mycobacterium tuberculosis
# [3] = target: T1, M. tuberculosis DNA gyrase; parameters: made in house; settings: Table 2; published previously (Poissy et al. 2010); cited from earlier work
# M. tuberculosis H37Rv [4] = settings: Table 2, published previously (Poissy et al. 2010); cited from earlier work
# [5] = test system: M. tuberculosis H37Rv strain; assay: Minimal effective dosage in the murine TB model; type: in vivo, Balb/C/J female mice; settings: 25 mg/kg/j, Gavage
# Description: Four-week-old Balb/C/J female mice were infected intravenously with 10^6 CFU of M. tuberculosis H37Rv strain. On the day following the infection (D1), 10 mice were sacrificed to determine the exact baseline values of spleen weight and CFU counts in the lungs. The remaining mice were allocated to the following treatment groups: an untreated negative control group for survival monitoring, a positive control group treated for 1 month with isoniazid (INH) 25 mg/kg/d, […] test groups were treated with Quin18 and Quin19 at increasing dosages (25 mg/kg/d; 50 mg/kg/d; 100 mg/kg/d; 150 mg/kg/d) given by oral gavage, and two additional test groups were treated intravenously with Quin18 25 mg/kg/d and 100 mg/kg/d. All the groups contained 10 mice and were treated from D1 to D28, 5 days a week. The parameters used for assessing the severity of infection and the effectiveness of treatments were survival rate, spleen weight, gross lung lesions and CFU counts in the lungs.
# The minimal effective dosage was defined as the minimal dosage able to prevent mortality of the mice, spleen enlargement and the occurrence of gross lung lesions. CFU counts were considered to be a more precise way of determining the dose-ranging efficacy of Quin18 and Quin19.
# Survival rates between groups were plotted on a Kaplan-Meier curve and compared using the log-rank test.
# [6] = H37Rv, Table 2, read-out: MIC (M. tuberculosis) WT
# [7] = H37RV, Table 3, read-out: MIC M. tuberculosis H37Rv
# T1 sequence (P9WG47 whole entry): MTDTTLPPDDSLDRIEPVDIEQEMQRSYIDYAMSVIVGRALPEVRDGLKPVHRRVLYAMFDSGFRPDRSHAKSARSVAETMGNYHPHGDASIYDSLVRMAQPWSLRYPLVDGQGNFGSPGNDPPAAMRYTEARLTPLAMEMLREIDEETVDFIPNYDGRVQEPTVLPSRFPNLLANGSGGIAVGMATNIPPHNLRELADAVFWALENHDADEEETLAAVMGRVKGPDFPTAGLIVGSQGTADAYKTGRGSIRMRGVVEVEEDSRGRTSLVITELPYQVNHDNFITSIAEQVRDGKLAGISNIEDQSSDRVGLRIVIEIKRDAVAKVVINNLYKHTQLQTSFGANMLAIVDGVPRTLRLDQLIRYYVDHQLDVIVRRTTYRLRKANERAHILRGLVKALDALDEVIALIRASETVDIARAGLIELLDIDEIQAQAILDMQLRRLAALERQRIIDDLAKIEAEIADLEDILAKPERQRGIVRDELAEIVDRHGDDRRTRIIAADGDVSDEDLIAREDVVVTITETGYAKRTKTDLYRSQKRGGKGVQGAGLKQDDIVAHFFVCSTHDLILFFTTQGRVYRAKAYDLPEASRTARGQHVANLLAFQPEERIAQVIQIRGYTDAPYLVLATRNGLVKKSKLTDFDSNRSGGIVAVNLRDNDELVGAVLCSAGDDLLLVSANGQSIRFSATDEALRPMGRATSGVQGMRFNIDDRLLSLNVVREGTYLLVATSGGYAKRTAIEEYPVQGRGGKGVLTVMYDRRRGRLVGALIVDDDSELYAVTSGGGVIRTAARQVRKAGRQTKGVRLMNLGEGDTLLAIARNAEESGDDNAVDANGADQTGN
# T1 sequence (P9WG45 whole entry): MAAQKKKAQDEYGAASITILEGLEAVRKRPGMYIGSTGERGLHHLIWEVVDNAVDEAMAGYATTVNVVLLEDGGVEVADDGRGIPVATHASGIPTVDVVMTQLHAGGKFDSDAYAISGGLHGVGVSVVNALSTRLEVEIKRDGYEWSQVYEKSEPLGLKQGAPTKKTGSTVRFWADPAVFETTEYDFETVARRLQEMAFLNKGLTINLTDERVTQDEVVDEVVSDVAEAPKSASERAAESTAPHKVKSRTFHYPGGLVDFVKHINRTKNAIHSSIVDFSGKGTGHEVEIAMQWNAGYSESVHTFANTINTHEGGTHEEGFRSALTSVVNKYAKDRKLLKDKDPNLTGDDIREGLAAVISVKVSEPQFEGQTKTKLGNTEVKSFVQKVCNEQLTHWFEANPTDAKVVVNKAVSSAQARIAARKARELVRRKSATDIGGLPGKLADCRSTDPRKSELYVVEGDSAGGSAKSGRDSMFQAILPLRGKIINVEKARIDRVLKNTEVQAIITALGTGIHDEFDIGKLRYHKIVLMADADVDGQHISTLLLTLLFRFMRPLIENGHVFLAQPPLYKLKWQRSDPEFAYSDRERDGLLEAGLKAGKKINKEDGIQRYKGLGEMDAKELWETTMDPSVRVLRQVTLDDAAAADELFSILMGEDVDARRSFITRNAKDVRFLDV
Compound,IC50 [1],MIC (M. tuberculosis H37Rv [2]; [6]),MIC (M. tuberculosis H37Rv [2]; [7]),other results
"CCCCCN1CCN(c2cc3c(cc2F)c(=O)c(C(=O)O)cn3C2CC2)CC1 [Quin 15, 1-cyclopropyl-6-fluoro-4-oxo-7-(4-pentylpiperazin-1-yl)-1,4-dihydroquinoline-3-carboxylic acid]",76 µM,6 µM,,
"CCCCCCCCCN1CCN(c2c(F)cc3c(=O)c(C(=O)O)cn(C4CC4)c3c2OC)CC1 [Compound 17, 1-cyclopropyl-6-fluoro-8-methoxy-7-(4-nonylpiperazin-1-yl)-4-oxo-1,4-dihydroquinoline-3-carboxylic acid]",,,0.12 µM,
"CCCCCCCCN1CCN(c2cc3c(cc2F)c(=O)c(C(=O)O)cn3C2CC2)CC1 [Quin 16, 1-cyclopropyl-6-fluoro-7-(4-octylpiperazin-1-yl)-4-oxo-1,4-dihydroquinoline-3-carboxylic acid]",135 µM,≤ 0.2 µM,,
"COc1c(N2CCNC(C)C2)c(F)cc2c(=O)c(C(=O)O)cn(C3CC3)c12 (centres unmarked) [Gatifloxacin, gatifloxacin]",,,,IC50 [3]: 6.8 µM; MIC (M. tuberculosis) WT (M. tuberculosis H37Rv [4]): 0.32 µM
"CCCCCCCCCCCCCCCCN1CCN(c2c(F)cc3c(=O)c(C(=O)O)cn(C4CC4)c3c2OC)CC1 [Quin 20, 1-cyclopropyl-6-fluoro-7-(4-hexadecylpiperazin-1-yl)-8-methoxy-4-oxo-1,4-dihydroquinoline-3-carboxylic acid]",121 µM,0.2 µM,,
"CCCCCCCN1CCN(c2c(F)cc3c(=O)c(C(=O)O)cn(C4CC4)c3c2OC)CC1 [Compound 15, 1-cyclopropyl-6-fluoro-7-(4-heptylpiperazin-1-yl)-8-methoxy-4-oxo-1,4-dihydroquinoline-3-carboxylic acid]",,,2.2 µM,
"CCCCCCCCCCN1CCN(c2cc3c(cc2F)c(=O)c(C(=O)O)cn3C2CC2)CC1 [Quin 9, 1-cyclopropyl-7-(4-decylpiperazin-1-yl)-6-fluoro-4-oxo-1,4-dihydroquinoline-3-carboxylic acid]",120 µM,0.5 µM,,
"O=C(O)c1cn(C2CC2)c2cc(N3CCNCC3)c(F)cc2c1=O [Ciprofloxacin, ciprofloxacin, reference compound]",,1.5 µM,,
"CCCCCN1CCN(c2c(F)cc3c(=O)c(C(=O)O)cn(C4CC4)c3c2OC)CC1 [Quin 17, 1-cyclopropyl-6-fluoro-8-methoxy-4-oxo-7-(4-pentylpiperazin-1-yl)-1,4-dihydroquinoline-3-carboxylic acid]",60 µM,3.5 µM,,
"CCCCCCCCCCCCN1CCN(c2c(F)cc3c(=O)c(C(=O)O)cn(C4CC4)c3c2OC)CC1 [Compound 20, 1-cyclopropyl-7-(4-dodecylpiperazin-1-yl)-6-fluoro-8-methoxy-4-oxo-1,4-dihydroquinoline-3-carboxylic acid]",,,0.47 µM,
"CCCCCCCCCCCCCCCCN1CCN(c2cc3c(cc2F)c(=O)c(C(=O)O)cn3C2CC2)CC1 [Quin 10, 1-cyclopropyl-6-fluoro-7-(4-hexadecylpiperazin-1-yl)-4-oxo-1,4-dihydroquinoline-3-carboxylic acid]",105 µM,57 µM,,
"CCCCCCCCCCCN1CCN(c2c(F)cc3c(=O)c(C(=O)O)cn(C4CC4)c3c2OC)CC1 [Compound 19, 1-cyclopropyl-6-fluoro-8-methoxy-4-oxo-7-(4-undecylpiperazin-1-yl)-1,4-dihydroquinoline-3-carboxylic acid]",,,0.25 µM,
"NNC(=O)c1ccncc1 [Isoniazid, isoniazid, reference compound]",,,,"Spleen weight [5]: 237 ± 73.8 mg; Survival: No. death ([5]; D1 to D28, 5 days a week, 10 mice): 0"
"COc1c(N2C[C@@H]3CCCN[C@@H]3C2)c(F)cc2c(=O)c(C(=O)O)cn(C3CC3)c12 [Moxifloxacin, moxifloxacin, reference compound]",,,1.2 µM,MIC against wild-type M. tuberculosis strain (below moxifloxacin MIC) (M. tuberculosis H37Rv [2]; Table 3): 1.2
